{"source": "patent US6603046B1", "about": "“Bis-aromatic a,β-unsaturated ketones” (Lica Pharmaceuticals A/S, priority 1992, dated 2003)", "key": {"L. major in U937 cells": {"test_system": "L. major in U937 cells", "assay": "Intracellular parasite killing, parasite survival index (PSI)", "assay_type": "cell-based, Leishmania major", "conditions": "1 μg/ml", "procedure": "Killing was quantified by a modification of a technique described by Berman et al.\nBriefly, 3 days after infection, microtiter well cultures were rinsed once with medium, exposed to 100 μl of prewarmed (37° C.) 0.01% sodium dodecyl-sulfate (SDS) in medium RPMI 1640, and returned to 34° C. for 15 min. By this procedure, macrophages were lysed, according to microscopic observation, and amastigotes were released. 100 μl of medium RPMI 1640 with 20% HFCS were added to each well without removal of the lysing solution. The plates were then transferred to a 26° C. incubator, and amastigotes were left to transform to promastigotes. After 48 h, parasite growth was recorded by adding 1 μCi of ^3H-thymidine (New England Nuclear Corp., Boston, Mass.) to each well. The parasites were harvested 24 h later on glass fiber filters with a harvesting machine (Skatron, Lierbyen, Norway), and ^3H-thymidine incorporation was measured in a liquid scintillation counter (Tricarb; Packard Instrument Co., Inc., Rockville, Md.). The parasite survival index (PSI) was determined. This index is the mean 3H-thymidine incorporation (cpm) in treated infected cells as compared with the untreated infected cells. [formula]"}, "human monocytes": {"test_system": "human monocytes", "assay": "Zymosan-enhanced chemiluminescence, monocytes", "assay_type": "cell-based", "conditions": "Monocyte, read-out: percentage inhibition of chemiluminescence response to opsonized zymosan (mean ± SEM)", "procedure": "Chemiluminescence. Monocytes were prepared from heparinized blood by metrizoate sodium-Ficoll (the same as lymphocyte proliferation). Polymorphonuclear leucocytes (PMN) were prepared from heparinized blood by dextran sedimentation and metrizoate sodium-Ficoll separation. Remaining erythrocytes were removed by hypotonic lysis. A zymosan-enhanced chemiluminescence assay was used. The assay was performed in a total volume of 5.5 ml at ambient temperature in glass scintillation vials. A Beckman L 8000 scintillation counter (placed under air-conditioned, thermostat controlled, 21±1° C. conditions) was used in the out-of-coincidence mode A 1.1 ml portion of PMN or monocyte suspension (1×10^6 cells per ml) was pre-incubated with 1.1 ml of various concentrations of licochalcone A for 30 min at 37° C. in a rotor at 20 rpm Luminol (5-amino-2,3-dihydro-1,4-phatalazinedione) obtained from Sigma Chemical Co., St Louis, Mo., U.S.A., was maintained as a stock solution of 10 mg/ml in NaOH (0.1 N) and diluted in Krebs-Ringer solution immediately before use. Each vial contained 5×10^5 pre-incubated PMN or monocyte, 4 mg of opsonized zymosan (Sigma), 50 μl of luminol solution, and 4.45 ml of Krebs-Ringer solution containing 5 mM glucose. The final concentration of luminol in the assay mixture was 5×10^−8m."}, "Sarcina lutea": {"test_system": "Sarcina lutea", "assay": "MIC, macrodilution (Example 17)", "assay_type": "cell-based", "conditions": "Micrococcus luteus; 1 strain"}, "Corynebacterium species": {"test_system": "Corynebacterium species", "assay": "microbe, parasite or virus in culture", "assay_type": "cell-based"}, "M. intracellular": {"test_system": "M. intracellular", "assay": "Radiometric MIC (Example 19)", "assay_type": "cell-based", "conditions": "n=9"}, "[1]": {"assay": "Toxicity study in mice, i.v. and oral (Example 21)", "assay_type": "in vivo, NMRI female mice", "procedure": "Drug. Licochalcone A solution was prepared as follows: 20 mg of licochalcone A was dissolved in 0.2 ml of ethanol. 60 mg of melted polyoxyethylene (23)lauryletherb (Brij 35) was added. 1.7 ml of phosphate buffer was then added while stirring on a warm plate. pH in the licochalcone A solution was adjusted to 7.3.\nMice. NMRI female mice (30-35 gram) in groups of 4 each were used for these studies. For the oral route experiment, the animals were fasted for 16 hrs with access to drinking water. Licochalcone A was suspended in 2% carboxymethylcellulose in water. This suspension was available for the mice in an amount of 0.1 ml per 10 gram body weight. The animals were observed every day for 7 days. For the intravenous injection experiment the animals were not fasted. Licochalcone A in solution (20 mg/ml) prepared as mentioned above was injected intravenously 0.1 ml per 10 gram body weight over a period of one hour and again 24 hrs later."}}, "note": "Like-named read-outs stand apart in the source and are kept apart here.", "data": [{"compound": "C=CC(C)(C)c1cc(/C=C/C(=O)c2ccc(O)cc2)c(OC)cc1O", "note": "[Licochalcone A, licochalcone A]", "values": [{"measurement": "PSI index", "setting": "L. major in U937 cells", "value": "about 5%"}, {"measurement": "inhibition at 1 µg/mL", "setting": "human monocytes; 1 μg/ml", "value": "8.2 ± 3.3", "unit": "%"}, {"measurement": "inhibition at 2 µg/mL", "setting": "human monocytes; 2 μg/ml", "value": "7.8 ± 6.5", "unit": "%"}, {"measurement": "inhibition at 5 µg/mL", "setting": "human monocytes; 5 μg/ml", "value": "24.8 ± 5.3", "unit": "%"}, {"measurement": "inhibition at 10 µg/mL", "setting": "human monocytes; 10 μg/ml", "value": "37.9 ± 3.1", "unit": "%"}, {"measurement": "inhibition at 20 µg/mL", "setting": "human monocytes; 20 μg/ml", "value": "56.5 ± 3.8", "unit": "%"}, {"measurement": "MIC", "setting": "Sarcina lutea", "value": 4, "unit": "µg/mL"}, {"measurement": "MIC", "setting": "Corynebacterium species", "value": "0.3 to 4", "unit": "µg/mL"}, {"measurement": "MIC", "setting": "Corynebacterium species; read-out: MIC of one very sensitive corynebacterium species", "value": 0.3, "unit": "µg/mL"}, {"measurement": "meanMIC", "setting": "M. intracellular", "value": 50.0, "unit": "µg/mL"}, {"measurement": "rangeMIC", "setting": "M. intracellular", "value": "20 to 80", "unit": "µg/mL"}, {"measurement": "No. dead (after 7 days)", "setting": "[1]; 1000 mg/kg perorally, groups of 4", "value": "0 (after 7 days)"}, {"measurement": "No. dead (after 1 hr)", "setting": "[1]; i.v. 20 mg/kg, groups of 4", "value": 0}, {"measurement": "No. dead (after 1 hr)", "setting": "[1]; i.v. 50 mg/kg, groups of 4", "value": 1}, {"measurement": "No. dead (after 1 hr)", "setting": "[1]; i.v. 60 mg/kg, groups of 4", "value": 4}, {"measurement": "No. dead (after 1 hr)", "setting": "[1]; i.v. 100 mg/kg, groups of 4", "value": 4}, {"measurement": "Approximate LD50 i.v.", "setting": "[1]; mice", "value": "~55", "unit": "mg per kg body weight"}]}]}
